According to publication PMC12446476 (Nature Communications, 2025):
≈ marks a conversion by molar mass, not a printed value.

Tests used:
N. gonorrhoeae [1] = test: In vitro time-kill assay; assay type: cell-based, Neisseria gonorrhoeae
Source text: The 2024 WHO N. gonorrhoeae reference strains were used for quality control. Only whole MIC doubling dilutions are reported. Clinical breakpoints or the epidemiological cutoff (ECOFF, to indicate azithromycin resistance) from EUCAST (v14.0, https://www.eucast.org/clinical_breakpoints) were used to classify isolates as antimicrobial susceptible or resistant. […] Two times the standard inoculum defined by CLSI was used to establish consistent growth in untreated control samples for some strains. In vitro time-kill assays were performed according to CLSI guidelines[65] using Columbia Broth (BD Difco) supplemented with 1% IsoVitaleX Enrichment (BD). Viable bacterial counts were generated by plating 10-fold serially diluted samples on GC agar plates containing 1% IsoVitaleX Enrichment (BD).

N. gonorrhoeae [2] = test: In vitro selection of mutants with reduced susceptibility; assay type: cell-based, Neisseria gonorrhoeae
Method: N. gonorrhoeae strains were grown overnight on chocolate agar plates, as described above. […] Plates were incubated at 35 ± 2 °C in a humid 5% CO2–enriched atmosphere for 48–72 h.

S. aureus = test: MIC determination for S. aureus, broth dilution; assay type: cell-based; conditions: Staphylococcus aureus, ATCC29213; S. aureus ATCC 29213
[3] = biological target: recombinant NgFabI protein (Neisseria gonorrhoeae, UniProt A0ACH0F547); test: biochemical
Method: FabI activity was monitored by measuring NADH consumption. […] To initiate reactions, 50 µM NADH was added, and absorbance was monitored at 340 nm every 12 s for a total of 40 min using a Spectramax Plus 384 plate reader (Molecular Devices) at a controlled temperature of 30 °C. Data were analysed using the XLfit Microsoft Excel plugin (version 5.5). IC50 values were determined using a logistic sigmoid curve-fitting of the inhibitor dose response curves.

Sequence of recombinant NgFabI protein (A0ACH0F547 entry or part of it): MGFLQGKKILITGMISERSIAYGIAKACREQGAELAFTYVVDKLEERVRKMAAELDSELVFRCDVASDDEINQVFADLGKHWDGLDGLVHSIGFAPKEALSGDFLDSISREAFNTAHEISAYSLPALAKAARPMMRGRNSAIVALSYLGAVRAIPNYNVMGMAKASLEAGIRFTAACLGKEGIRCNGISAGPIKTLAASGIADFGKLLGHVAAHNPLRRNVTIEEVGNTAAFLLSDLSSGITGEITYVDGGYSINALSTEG

In the case of `Cc1c(CN(C)C(=O)/C=C/c2cnc3c(c2)N[C@H](C)[C@H](O)C(=O)N3)oc2ccccc12` [Debio 1453], the “Log10CFU/ml (time kill)” value (N. gonorrhoeae [1]; AR Bank0179, 2X MIC, 1 hr) is reported as 5.63 Log10CFU/ml, the “Log10CFU/ml (time kill)” value (N. gonorrhoeae [1]; AR Bank0179, 2X MIC, 3 hr) is reported as 5.09 Log10CFU/ml and the “Log10CFU/ml (time kill)” value (N. gonorrhoeae [1]; AR Bank0179, 2X MIC, 6 hr) is reported as 4.63 Log10CFU/ml. For the same compound, the “Log10CFU/ml (time kill)” value (N. gonorrhoeae [1]; AR Bank0179, 2X MIC, 10 hr) was 2.00 Log10CFU/ml, the “Log10CFU/ml (time kill)” value (N. gonorrhoeae [1]; AR Bank0179, 2X MIC, 24 hr) was 1.95 Log10CFU/ml and the “Log10CFU/ml (time kill)” value (N. gonorrhoeae [1]; AR Bank0179, 4X MIC, 0 hr) was 5.46 Log10CFU/ml. The “Log10CFU/ml (time kill)” value (N. gonorrhoeae [1]; AR Bank0179, 4X MIC, 1 hr) was 5.53 Log10CFU/ml, the “Log10CFU/ml (time kill)” value (N. gonorrhoeae [1]; AR Bank0179, 4X MIC, 3 hr) was 4.84 Log10CFU/ml and the “Log10CFU/ml (time kill)” value (N. gonorrhoeae [1]; AR Bank0179, 4X MIC, 6 hr) was 3.98 Log10CFU/ml. For the same compound, the “Log10CFU/ml (time kill)” value (N. gonorrhoeae [1]; AR Bank0179, 4X MIC, 10 hr) was 1.95 Log10CFU/ml, the “Log10CFU/ml (time kill)” value (N. gonorrhoeae [1]; AR Bank0179, 4X MIC, 24 hr) was 1.95 Log10CFU/ml and the “Log10CFU/ml (time kill)” value (N. gonorrhoeae [1]; AR Bank0179, 8X MIC, 0 hr) was 5.74 Log10CFU/ml. The “Log10CFU/ml (time kill)” value (N. gonorrhoeae [1]; AR Bank0179, 8X MIC, 1 hr) was 5.30 Log10CFU/ml, the “Log10CFU/ml (time kill)” value (N. gonorrhoeae [1]; AR Bank0179, 8X MIC, 3 hr) was 4.73 Log10CFU/ml and the “Log10CFU/ml (time kill)” value (N. gonorrhoeae [1]; AR Bank0179, 8X MIC, 6 hr) was 3.88 Log10CFU/ml. The “Log10CFU/ml (time kill)” value (N. gonorrhoeae [1]; AR Bank0179, 8X MIC, 10 hr) was 1.95 Log10CFU/ml, the “Log10CFU/ml (time kill)” value (N. gonorrhoeae [1]; AR Bank0179, 8X MIC, 24 hr) was 1.95 Log10CFU/ml and the “Log10CFU/ml (time kill)” value (N. gonorrhoeae [1]; AR Bank0179, 16X MIC, 0 hr) was 5.69 Log10CFU/ml. The “Log10CFU/ml (time kill)” value (N. gonorrhoeae [1]; AR Bank0179, 16X MIC, 1 hr) was 5.23 Log10CFU/ml, the “Log10CFU/ml (time kill)” value (N. gonorrhoeae [1]; AR Bank0179, 16X MIC, 3 hr) was 4.75 Log10CFU/ml and the “Log10CFU/ml (time kill)” value (N. gonorrhoeae [1]; AR Bank0179, 16X MIC, 6 hr) was 3.67 Log10CFU/ml. The “Log10CFU/ml (time kill)” value (N. gonorrhoeae [1]; AR Bank0179, 16X MIC, 10 hr) was 1.95 Log10CFU/ml, the “Log10CFU/ml (time kill)” value (N. gonorrhoeae [1]; AR Bank0179, 16X MIC, 24 hr) was 1.95 Log10CFU/ml and the “Log10CFU/ml (time kill)” value (N. gonorrhoeae [1]; ATCC 49226, 2X MIC, 0 hr) was 6.10 Log10CFU/ml. For the same compound, the “Log10CFU/ml (time kill)” value (N. gonorrhoeae [1]; ATCC 49226, 2X MIC, 1 hr) was 5.92 Log10CFU/ml, the “Log10CFU/ml (time kill)” value (N. gonorrhoeae [1]; ATCC 49226, 2X MIC, 3 hr) was 5.64 Log10CFU/ml and the “Log10CFU/ml (time kill)” value (N. gonorrhoeae [1]; ATCC 49226, 2X MIC, 6 hr) was 4.51 Log10CFU/ml. The “Log10CFU/ml (time kill)” value (N. gonorrhoeae [1]; ATCC 49226, 2X MIC, 10 hr) was 2.60 Log10CFU/ml, the “Log10CFU/ml (time kill)” value (N. gonorrhoeae [1]; ATCC 49226, 2X MIC, 24 hr) was 1.95 Log10CFU/ml and the “Log10CFU/ml (time kill)” value (N. gonorrhoeae [1]; ATCC 49226, 4X MIC, 0 hr) was 6.07 Log10CFU/ml. The “Log10CFU/ml (time kill)” value (N. gonorrhoeae [1]; WHO V, 2X MIC, 0 hr) was 5.66 Log10CFU/ml, the “Log10CFU/ml (time kill)” value (N. gonorrhoeae [1]; WHO V, 2X MIC, 1 hr) was 5.58 Log10CFU/ml and the “Log10CFU/ml (time kill)” value (N. gonorrhoeae [1]; WHO V, 2X MIC, 3 hr) was 4.90 Log10CFU/ml. For the same compound, the “Log10CFU/ml (time kill)” value (N. gonorrhoeae [1]; WHO V, 2X MIC, 6 hr) was 4.14 Log10CFU/ml, the “Log10CFU/ml (time kill)” value (N. gonorrhoeae [1]; WHO V, 2X MIC, 10 hr) was 3.53 Log10CFU/ml and the “Log10CFU/ml (time kill)” value (N. gonorrhoeae [1]; WHO V, 2X MIC, 24 hr) was 1.95 Log10CFU/ml. The “Log10CFU/ml (time kill)” value (N. gonorrhoeae [1]; WHO V, 4X MIC, 0 hr) was 5.59 Log10CFU/ml, the “Log10CFU/ml (time kill)” value (N. gonorrhoeae [1]; WHO V, 4X MIC, 1 hr) was 5.34 Log10CFU/ml and the “Log10CFU/ml (time kill)” value (N. gonorrhoeae [1]; WHO V, 4X MIC, 3 hr) was 4.37 Log10CFU/ml. The “Log10CFU/ml (time kill)” value (N. gonorrhoeae [1]; WHO V, 4X MIC, 6 hr) was 4.03 Log10CFU/ml, the “Log10CFU/ml (time kill)” value (N. gonorrhoeae [1]; WHO V, 4X MIC, 10 hr) was 2.00 Log10CFU/ml and the “Log10CFU/ml (time kill)” value (N. gonorrhoeae [1]; WHO V, 4X MIC, 24 hr) was 1.95 Log10CFU/ml. For the same compound, the “Log10CFU/ml (time kill)” value (N. gonorrhoeae [1]; WHO V, 8X MIC, 0 hr) was 5.60 Log10CFU/ml, the “Log10CFU/ml (time kill)” value (N. gonorrhoeae [1]; WHO V, 8X MIC, 1 hr) was 4.90 Log10CFU/ml and the “Log10CFU/ml (time kill)” value (N. gonorrhoeae [1]; WHO V, 8X MIC, 3 hr) was 4.34 Log10CFU/ml. For the same compound, the “Log10CFU/ml (time kill)” value (N. gonorrhoeae [1]; WHO V, 8X MIC, 6 hr) was 4.03 Log10CFU/ml, the “Log10CFU/ml (time kill)” value (N. gonorrhoeae [1]; WHO V, 8X MIC, 10 hr) was 1.95 Log10CFU/ml and the “Log10CFU/ml (time kill)” value (N. gonorrhoeae [1]; WHO V, 8X MIC, 24 hr) was 1.95 Log10CFU/ml. For the same compound, the “Log10CFU/ml (time kill)” value (N. gonorrhoeae [1]; WHO V, 16X MIC, 0 hr) was 5.81 Log10CFU/ml, the “Log10CFU/ml (time kill)” value (N. gonorrhoeae [1]; WHO V, 16X MIC, 1 hr) was 5.00 Log10CFU/ml and the “Log10CFU/ml (time kill)” value (N. gonorrhoeae [1]; WHO V, 16X MIC, 3 hr) was 4.27 Log10CFU/ml. The “reduction in viable CFU counts” value (N. gonorrhoeae [1]; within 24 h, all concentrations tested, as low as 2× MIC, 10 isolates) was no less than 3 log10, the “Mutants (colonies)” value (N. gonorrhoeae [2]; 6804, 4x MIC) was 2 and the “Mutants (colonies)” value (N. gonorrhoeae [2]; 6804, 8x MIC) was 0. The “Mutants (colonies)” value (N. gonorrhoeae [2]; 6804, 16x MIC) was 0, the “Mutants (colonies)” value (N. gonorrhoeae [2]; 6926, 4x MIC) was 1 and the “Mutants (colonies)” value (N. gonorrhoeae [2]; 6926, 8x MIC) was 0. For the same compound, the “Mutants (colonies)” value (N. gonorrhoeae [2]; 6926, 16x MIC) was 0, the “Mutants (colonies)” value (N. gonorrhoeae [2]; ATCC 700825, 16x MIC) was 0 and the “Mutants (colonies)” value (N. gonorrhoeae [2]; WHO Z, 4x MIC) was 1. For the same compound, the “Mutants (colonies)” value (N. gonorrhoeae [2]; WHO Z, 8x MIC) was 0, the “Mutants (colonies)” value (N. gonorrhoeae [2]; WHO Z, 16x MIC) was 0 and the MIC (S. aureus) was 8 ng/mL (≈ 0.019 µM). It also gave an IC50 [3] of 600 pM.
